The values below come from patent US5329010A, “Quinone derivatives” (Eisai Co., Ltd., priority 1991, dated 1994).

Data set [1] relates to production of thromboxane B2 (TxB2), rat abdominal glycogenic infiltration cell. The data set can be described thus: Inhibitory activity against production of thromboxane B2 (TxB2) from rat abdominal infiltration cell. Format: cell-based, rat (Fisher male). The following applies: 10 min, cells 5×10^6/ml, calcium ionophore A-23187 2 μg/ml, 37° C., enzyme immunoassay. On the procedure: (§1) Inhibitory activity against the production of leukotriene B4 (LTB4) and thromboxane B2 (TxB2 from rat abdominal infiltration cell
(§2) 10 ml of a 6% (w/v) solution of glycogen (Type II from Oyster, Sigma) in physiological saline was injected into the abdominal cavity of a Fisher male rat having a weight of 150 to 200 g. After 20 to 24 hours, the abdominal exudation cells were recovered therefrom, washed and suspended in the Hanks' balanced salt solution (HBSS) in a concentration of 5×10^6 /ml. This suspension was poured onto a 96-well culture plate (Costar: registered trademark) in which a test drug diluted to a predetermined concentration had been put in an amount of 10 μl/well, in an amount of 100 μl/well. The resulting plate was incubated at 37° C. for 5 minutes. Calcium ionophore A-23187 [Calbiochem (registered trademark)] was added in a final concentration of 2 μg/ml. After the reaction at 37° C. for additional 10 minutes, the plate was put on ice and a BW755C solution was added in a final concentration of 100 μM. The resulting plate was centrifuged at 15000 rpm for 10 minutes. The supernatant was recovered and the amounts of LTB4 and TxB2 in the supernatant were determined by enzyme immunoassay with an EIA kit mfd. by Cayman.
(Thromboxane A2 is very unstable to treat and naturally turns to thromboxane B2 in 10-20 seconds in the human body. Therefore, thromboxane B2 was used in the tests above).

Data set [2] has as its system production of leukotriene B4 (LTB4), rat abdominal glycogenic infiltration cell. The data set can be described thus: Inhibitory activity against production of leukotriene B4 (LTB4) from rat abdominal infiltration cell. To be noted: 10 min, cells 5×10^6/ml, calcium ionophore A-23187 2 μg/ml, 37° C., enzyme immunoassay. Format: cell-based, rat (Fisher male). On the procedure: as §1, §2

The nature of data set [3]: Repetitive Oral Administration Test for 4 Weeks on Rats. The class given is in vivo, rat (female Slc:SD). To be noted: once a day, each of 30 and 100 mg/kg. As for the experimental part: Repetitive Oral Administration Test for 4 Weeks on Rats
30 and 100 mg/kg of the compound obtained in the Example 3 was orally administered to female Slc:SD rats aged 7 weeks (each group consisting of 5 animals) for 4 weeks. This compound was suspended in a 0.5 wt. % aqueous solution of methylcellulose and administered once a day.
During the administration period, the general conditions of the animals were observed and the body weight and feed intake were measured. After the completion of the final administration, hematological examination, hemo-biochemical examination, urinalysis and autopsy were effected and organs were weighed. Further, livers and kidneys were patho-histologicallyexamined under an optical microscope.

Data set [4] in a line: Repetitive Oral Administration Test for 4 Weeks on Dogs. More on the design: species or system dog (female beagle). The following applies: in vivo, concluded after rat and dog tests, read-out: toxicologically non-influential dose. As for the experimental part:
Repetitive Oral Administration Test for 4 Weeks on Dogs
30 and 100 mg/kg of the compound obtained in the Example 3 was orally administered to female beagles aged 8 months (each group consisting of 2 animals) for 4 weeks. This compound was triturated with lactose and administered once a day.
During the administration period, the general conditions of the animals were observed and the body weight and feed intake were measured. After the completion of the first, seventh and final administrations, hemo-biochemical examination was effected. After the completion of the seventh and final administrations, further, hematological examination and urinalysis were effected. Furthermore, autopsy was effected and organs were weighed after the final administration. Livers, kidneys and adrenal bodies were patho-histologically examined under an optical microscope.

On to `CCCCOc1c(C)c(OC)c(C)c(/C=C(\CCCCCc2cccnc2)C(=O)OCC)c1OC` [Ex. 7], for which the IC50 in data set [1] was determined as 90 nM; in data set [2], 1390 nM.

For the molecule `CCOC(=O)/C(=C/c1c(C)c(OC)c(OC)c(C)c1OC)CCCc1cccnc1` [Ex. 10], the IC50 in data set [1] stood at 420 nM; in data set [2] it was 320 nM.

For `CCCCCCCOc1c(C)c(OC)c(C)c(/C=C(\CCCCCc2cccnc2)C(=O)OCC)c1OC` [Ex. 9], the IC50 in data set [1] is 160 nM; in data set [2], 3160 nM.

For the molecule `CCCCCCCOc1c(C)c(OC)c(/C=C(\CCCCCc2cccnc2)C(=O)OCC)c(C)c1OC` [Ex. 5], the IC50 in data set [1] came to 480 nM; in data set [2], 3160 nM.

On to `COC1=C(C)C(=O)C(/C=C(\CCCCCc2cccnc2)C(=O)O)=C(C)C1=O` [Ex. 3, (E)-3-(2-Methoxy-3,6-dimethyl-1,4-benzoquinon-5-yl)-2-[5-(3-pyridyl)pentyl]-2-propenoic acid], for which the “change in general conditions, body weight, feed intake, hematology, hemo-biochemistry, urinalysis, autopsy, organ weight, histology” value in data set [3] is “No change was observed”. Besides, the IC50 in data set [1] came to 50 nM; in data set [2], 1160 nM. The NOAEL at 672 h in data set [4] worked out at 100 mg/kg.

Turning to `COc1c(C)c(O)c(/C=C(\CCCCCc2cccnc2)C(=O)O)c(C)c1O` [Ex. 4, (E)-3-(2,5-Dihydroxy-4-methoxy-3,6-dimethylphenyl)-2-[5-(3-pyridyl)pentyl]-2-propenoic acid], the results for the 50% inhibitory concentration (IC50) in data set [1] and in data set [2] were 460 nM and 7860 nM, respectively.

The term IC50 denotes the concentration that gives 50% inhibition.
